Reference: ChEMBL document CHEMBL1137579, “Discovery of 1-[2-[(1S)-(3-dimethylaminopropionyl)amino-2-methylpropyl]-4-methylphenyl]-4-[(2R)-methyl-3-(4-chlorophenyl)-propionyl]piperazine as an orally active antagonist of the melanocortin-4 receptor for the potential treatment of cachexia” (J Med Chem, 2007)
Values after ≈ are worked out from the molar mass of the structure shown. Values belong to the compound of their own block, whether it stands above or below them. Active and inactive are the calls of the source. No cut-off for these calls is given here.

Legend:
Caco-2 = assay: Permeability across Caco-2 cell membrane; assay type: ADME, cell-based; settings: human
[1] = Cmax in rat at 2.5 mg/kg, iv or 10 mg/kg, po; assay type: ADME, organism-based; settings: in vivo
[2] = Drug level in rat brain at 10 mg/kg, po after 1 hr; assay type: ADME, organism-based; design: dose 10 mg/kg, route oral; settings: read-out: Drug uptake
[3] = Oral bioavailability in rat at 10 mg/kg, po; assay type: ADME, organism-based; settings: in vivo
[4] = Drug level in rat brain at 10 mg/kg, po after 4 hrs; assay type: ADME, organism-based; design: dose 10 mg/kg, route oral; settings: read-out: Drug uptake
[5] = AUC in rat at 10 mg/kg, po; assay type: ADME, organism-based; design: dose 10 mg/kg, route oral; settings: plasma
[6] = Tmax in rat at 2.5 mg/kg, iv or 10 mg/kg, po; assay type: ADME, organism-based; settings: in vivo
[7] = Volume of distribution in rat at 2.5 mg/kg, iv or 10 mg/kg, po; assay type: ADME, organism-based; settings: in vivo
[8] = Ratio of drug level in brain to plasma in rat at 2.5 mg/kg, iv or 10 mg/kg, po after 1 hr; assay type: ADME, organism-based
[9] = Ratio of drug level in brain to plasma in rat at 2.5 mg/kg, iv or 10 mg/kg, po after 4 hrs; assay type: ADME, organism-based
[10] = Tmax in Beagle dog at 10 mg/kg, po; assay type: ADME, organism-based, Canis lupus familiaris; design: dose 10 mg/kg, route oral; settings: in vivo, read-out: Tm
[11] = Tmax in Sprague-Dawley rat brain at 10 mg/kg, po; assay type: ADME, organism-based; design: dose 10 mg/kg, route oral
[12] = AUC in CD1 mouse at 2.5 mg/kg, iv; assay type: ADME, organism-based; design: dose 2.5 mg/kg, route intravenous; settings: plasma
[13] = Oral bioavailability in CD1 mouse at 10 mg/kg, po; assay type: ADME, organism-based; settings: in vivo
Mus musculus [14] = assay: Increase in food intake in C57BL/6J mouse at 5 mg/kg on day 10; assay type: functional, organism-based; design: dose 5 mg/kg
[15] = Cmax in Sprague-Dawley rat brain at 10 mg/kg, po; assay type: ADME, organism-based; design: dose 10 mg/kg, route oral
[16] = AUC in […] rhesus monkey at 10 mg/kg, po; assay type: ADME, organism-based, Macaca mulatta; design: dose 10 mg/kg, route oral; settings: plasma
Rattus norvegicus = assay: AUC in Sprague-Dawley rat brain at 10 mg/kg, po; assay type: ADME, organism-based; design: dose 10 mg/kg, route oral; settings: in vivo
Mus musculus [17] = assay: Increase in food intake in C57BL/6J mouse at 20 mg/kg on day 12; assay type: functional, organism-based; design: dose 20 mg/kg
[18] = Tmax in CD1 mouse brain at 10 mg/kg, po; assay type: ADME, organism-based; design: dose 10 mg/kg, route oral
Mus musculus [19] = assay: Increase in food intake in C57BL/6J mouse at 20 mg/kg on day 11; assay type: functional, organism-based; design: dose 20 mg/kg
[20] = Aqueous solubility at pH 7.0; assay type: physicochemical; settings: aqueous medium
[21] = target: Melanocyte-stimulating hormone receptor (Homo sapiens) (UniProt Q01726); assay: Displacement of [125I]NDP-MSH from human MC1R
[22] = AUC in CD1 mouse at 10 mg/kg, po; assay type: ADME, organism-based; design: dose 10 mg/kg, route oral; settings: plasma
[23] = AUC in CD1 Beagle dog at 10 mg/kg, po; assay type: ADME, organism-based, Canis lupus familiaris; design: dose 10 mg/kg, route oral; settings: plasma
[24] = Tmax in rat at 5 mg/kg, iv or 10 mg/kg, po; assay type: ADME, organism-based; settings: in vivo
[25] = AUC in rhesus monkey at 5 mg/kg, iv; assay type: ADME, organism-based, Macaca mulatta; design: dose 5 mg/kg, route intravenous; settings: plasma
[26] = Volume of distribution in rat at 5 mg/kg, iv or 10 mg/kg, po; assay type: ADME, organism-based; settings: in vivo
[27] = Cmax in CD1 mouse brain at 10 mg/kg, po; assay type: ADME, organism-based; design: dose 10 mg/kg, route oral
[28] = Ratio of drug level in brain to plasma in rat at 5 mg/kg, iv or 10 mg/kg, po after 4 hrs; assay type: ADME, organism-based
[29] = Dissociation constant, pKa of the compound; assay type: physicochemical
[30] = Ratio of drug level in brain to plasma in CD1 mouse at 10 mg/kg, po; assay type: ADME, organism-based; design: dose 10 mg/kg, route oral
Mus musculus [31] = assay: Increase in food intake in C57BL/6J mouse at 5 mg/kg on day 12; assay type: functional, organism-based; design: dose 5 mg/kg
[32] = Cmax in Beagle dog at 10 mg/kg, po; assay type: ADME, organism-based, Canis lupus familiaris; design: dose 10 mg/kg, route oral; settings: in vivo
[33] = Tmax in rhesus monkey at 10 mg/kg, po; assay type: ADME, organism-based, Macaca mulatta; design: dose 10 mg/kg, route oral; settings: in vivo, read-out: Tm
[34] = Ratio of drug level in brain to plasma in rat at 5 mg/kg, iv or 10 mg/kg, po after 1 hr; assay type: ADME, organism-based
[35] = Cmax in rat at 5 mg/kg, iv or 10 mg/kg, po; assay type: ADME, organism-based; settings: in vivo
[36] = AUC in Beagle dog at 5 mg/kg, iv; assay type: ADME, organism-based, Canis lupus familiaris; design: dose 5 mg/kg, route intravenous; settings: plasma
[37] = Tmax in Sprague-Dawley rat at 10 mg/kg, po; assay type: ADME, organism-based; design: dose 10 mg/kg, route oral; settings: in vivo, read-out: Tm
Mus musculus [38] = assay: Increase in food intake in C57BL/6J mouse at 20 mg/kg on day 10; assay type: functional, organism-based; design: dose 20 mg/kg
[39] = Oral bioavailability in Beagle dog at 10 mg/kg, po; assay type: ADME, organism-based, Canis lupus familiaris; settings: in vivo
[40] = Volume of distribution in Beagle dog at 5 mg/kg, iv; assay type: ADME, organism-based, Canis lupus familiaris; design: dose 5 mg/kg, route intravenous; settings: in vivo
Mus musculus [41] = assay: AUC in CD1 mouse brain at 10 mg/kg, po; assay type: ADME, organism-based; design: dose 10 mg/kg, route oral; settings: in vivo
[42] = Volume of distribution in CD1 mouse at 2.5 mg/kg, iv; assay type: ADME, organism-based; design: dose 2.5 mg/kg, route intravenous; settings: in vivo
[43] = Cmax in rhesus monkey at 10 mg/kg, po; assay type: ADME, organism-based, Macaca mulatta; design: dose 10 mg/kg, route oral; settings: in vivo
[44] = Cmax in Sprague-Dawley rat at 10 mg/kg, po; assay type: ADME, organism-based; design: dose 10 mg/kg, route oral; settings: in vivo
[45] = Cmax in CD1 mouse at 10 mg/kg, po; assay type: ADME, organism-based; design: dose 10 mg/kg, route oral; settings: in vivo
[46] = AUC in Sprague-Dawley rat at 10 mg/kg, po; assay type: ADME, organism-based; design: dose 10 mg/kg, route oral; settings: plasma
[47] = Tmax in CD1 mouse at 10 mg/kg, po; assay type: ADME, organism-based; design: dose 10 mg/kg, route oral; settings: in vivo, read-out: Tm
Mus musculus [48] = assay: Increase in food intake in C57BL/6J mouse at 5 mg/kg on day 11; assay type: functional, organism-based; design: dose 5 mg/kg
[49] = Aqueous solubility at pH 3.0; assay type: physicochemical; settings: aqueous medium
[50] = Oral bioavailability in rhesus monkey at 10 mg/kg, po; assay type: ADME, organism-based, Macaca mulatta; settings: in vivo
[51] = Volume of distribution in rhesus monkey at 5 mg/kg, iv; assay type: ADME, organism-based, Macaca mulatta; design: dose 5 mg/kg, route intravenous; settings: in vivo
[52] = Plasma clearance in rat at 5 mg/kg, iv
[53] = target: Melanocortin receptor 4 (Homo sapiens) (UniProt P32245); assay: Activity at MC4R expressed in HEK293 cells assessed as stimulation of cAMP release at 10 uM relative to alpha-MSH; assay type: functional, cell-based
[54] = Half life in rat at 2.5 mg/kg, iv or 10 mg/kg, po; assay type: ADME, organism-based; settings: in vivo

Chain of Melanocortin receptor 4 (Homo sapiens) (P32245 whole entry): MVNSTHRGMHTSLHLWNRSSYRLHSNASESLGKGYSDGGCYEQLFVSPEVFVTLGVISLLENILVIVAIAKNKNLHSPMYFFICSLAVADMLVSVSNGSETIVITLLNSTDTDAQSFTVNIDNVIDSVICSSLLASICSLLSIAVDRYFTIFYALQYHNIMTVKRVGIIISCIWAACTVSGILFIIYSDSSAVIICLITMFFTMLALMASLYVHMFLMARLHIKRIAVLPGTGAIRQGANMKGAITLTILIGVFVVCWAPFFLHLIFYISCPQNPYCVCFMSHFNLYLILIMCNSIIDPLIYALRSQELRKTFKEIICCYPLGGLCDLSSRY
Chain of Melanocyte-stimulating hormone receptor (Homo sapiens) (Q01726 whole entry, looked up): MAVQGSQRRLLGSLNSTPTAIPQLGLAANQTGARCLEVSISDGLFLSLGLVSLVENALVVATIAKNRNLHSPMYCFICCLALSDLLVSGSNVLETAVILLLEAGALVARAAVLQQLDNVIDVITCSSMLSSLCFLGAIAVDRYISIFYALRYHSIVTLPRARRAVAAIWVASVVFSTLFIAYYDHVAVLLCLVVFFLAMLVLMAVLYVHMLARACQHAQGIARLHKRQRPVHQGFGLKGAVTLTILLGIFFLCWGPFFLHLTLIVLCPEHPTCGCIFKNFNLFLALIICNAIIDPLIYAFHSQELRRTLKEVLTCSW

SMILES: Cc1ccc(N2CCN(C(=O)[C@H](C)Cc3ccc(Cl)cc3F)CC2)c([C@@H](NC(=O)CCN(C)C)C(C)C)c1
Cmax [1]: 134 ng/mL | concentration at 1 h [2]: 8 ng/g | bioavailability [3]: 13% | concentration at 4 h [4]: 31 ng/g | AUC [5]: 1470 ng·h/mL | Tmax [6]: 4.7 h | Vd [7]: 4.2 L/kg

SMILES: Cc1ccc(N2CCN(C(=O)[C@H](C)Cc3ccc(Cl)cc3C)CC2)c([C@@H](NC(=O)CCN(C)C)C(C)C)c1
Cmax [1]: 208 ng/mL | concentration at 1 h [2]: 9 ng/g | bioavailability [3]: 5.6% | concentration at 4 h [4]: 42 ng/g | AUC [5]: 1950 ng·h/mL | Kp at 1 h [8]: 0.1 | Kp at 4 h [9]: 0.3 | Tmax [6]: 4 h | Vd [7]: 4.3 L/kg | permeability (Caco-2): 1.9 10^-6 cm/s

SMILES: Cc1ccc(N2CCN(C(=O)[C@H](C)Cc3ccc(Cl)cc3)CC2)c([C@@H](NC(=O)CCN(C)C)C(C)C)c1
Tmax [10]: 1.7 h | Tmax [11]: 6 h | AUC [12]: 1410 ng·h/mL | bioavailability [13]: 32% | Activity (Mus musculus [14]): Active | Cmax [15]: 41 ng/g | concentration at 1 h [2]: 20 ng/g | AUC [16]: 3860 ng·h/mL | AUC (Rattus norvegicus): 254 ng·h/g | bioavailability [3]: 43% | Activity (Mus musculus [17]): Active | Tmax [18]: 0.3 h | Activity (Mus musculus [19]): Active | concentration at 4 h [4]: 33 ng/g | solubility [20]: 33 mg/mL (≈ 62.6 mM) | Activity [21]: 50% | AUC [22]: 2530 ng·h/mL | AUC [23]: 2860 ng·h/mL | Tmax [24]: 4.7 h | AUC [5]: 1400 ng·h/mL | AUC [25]: 10300 ng·h/mL | Vd [26]: 13 L/kg | Cmax [27]: 91 ng/g | Kp at 4 h [28]: 0.4 | pKa [29]: 7.8 | Kp [30]: 0.15 | Activity (Mus musculus [31]): Active | Cmax [32]: 262 ng/mL | Tmax [33]: 1.8 h | Kp at 1 h [34]: 0.2 | Cmax [35]: 110 ng/mL | AUC [36]: 8200 ng·h/mL | Tmax [37]: 2.7 h | Activity (Mus musculus [38]): Active | bioavailability [39]: 19% | Vd [40]: 5.9 L/kg | AUC (Mus musculus [41]): 367 ng·h/g | Vd [42]: 4.1 L/kg | Cmax [43]: 761 ng/mL | Cmax [44]: 279 ng/mL | Cmax [45]: 946 ng/mL | AUC [46]: 1520 ng·h/mL | Tmax [47]: 0.5 h | Activity (Mus musculus [48]): Active | solubility [49]: > 71 mg/mL | permeability (Caco-2): 6.2 10^-6 cm/s | bioavailability [50]: 19% | Vd [51]: 2 L/kg

Other lines, results leading:

permeability (Caco-2): 5 10^-6 cm/s
SMILES: Cc1ccc(N2CCN(C(=O)[C@H](C)Cc3ccc(Cl)cc3)CC2)c([C@@H](N)C(C)C)c1

Cmax [1]: 22 ng/mL | concentration at 1 h [2]: < 5 ng/g | bioavailability [3]: 13% | concentration at 4 h [4]: < 5 ng/g | AUC [5]: 299 ng·h/mL | clearance [52]: 60 mL/min/kg | Tmax [6]: 6 h | Activity [53]: 7% | half-life [54]: 17 h | Vd [7]: 95 L/kg | permeability (Caco-2): 0.3 10^-6 cm/s
SMILES: CNCCN[C@H](c1cc(C)ccc1N1CCN(C(=O)[C@H](C)Cc2ccc(Cl)cc2F)CC1)C(C)C
